Assay results taken from paper PMC11509018, “Evaluation of the Role of Tanshinone I in an In Vitro System of Charcot-Marie-Tooth Disease Type 2N” (International Journal of Molecular Sciences, 2024).

Target: T1, AlaRS E337K binding to GST-Nrp1 b1 (Homo sapiens, UniProt P49588, E337K)
T1 construct: made in house; host or cells: E. coli BL21 (DE3), pET-21a for AlaRS
T1 sequence (P49588 1-968 E337K): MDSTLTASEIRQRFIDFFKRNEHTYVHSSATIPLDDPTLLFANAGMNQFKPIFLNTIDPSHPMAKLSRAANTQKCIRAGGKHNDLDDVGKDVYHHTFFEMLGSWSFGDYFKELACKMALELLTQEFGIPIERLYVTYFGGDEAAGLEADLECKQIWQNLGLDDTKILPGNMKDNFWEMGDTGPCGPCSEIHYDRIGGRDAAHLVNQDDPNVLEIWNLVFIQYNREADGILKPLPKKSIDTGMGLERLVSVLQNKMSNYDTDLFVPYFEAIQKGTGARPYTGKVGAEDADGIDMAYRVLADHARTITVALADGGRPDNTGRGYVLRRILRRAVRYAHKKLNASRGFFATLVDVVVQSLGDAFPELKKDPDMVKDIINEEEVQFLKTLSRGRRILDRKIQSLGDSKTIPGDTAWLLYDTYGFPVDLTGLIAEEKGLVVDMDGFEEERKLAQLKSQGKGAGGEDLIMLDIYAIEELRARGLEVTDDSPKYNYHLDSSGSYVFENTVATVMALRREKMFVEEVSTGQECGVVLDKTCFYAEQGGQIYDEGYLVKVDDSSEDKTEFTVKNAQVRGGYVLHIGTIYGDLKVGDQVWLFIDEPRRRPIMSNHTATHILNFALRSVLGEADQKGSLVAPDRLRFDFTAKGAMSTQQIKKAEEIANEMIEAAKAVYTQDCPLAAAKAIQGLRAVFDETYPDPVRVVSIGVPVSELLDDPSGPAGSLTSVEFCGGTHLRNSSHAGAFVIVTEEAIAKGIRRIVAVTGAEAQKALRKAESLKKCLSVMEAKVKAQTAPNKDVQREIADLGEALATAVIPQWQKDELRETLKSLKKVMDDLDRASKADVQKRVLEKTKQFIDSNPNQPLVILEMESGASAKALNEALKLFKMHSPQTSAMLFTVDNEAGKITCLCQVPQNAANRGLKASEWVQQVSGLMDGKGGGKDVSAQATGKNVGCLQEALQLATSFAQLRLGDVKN
Assay: GST pull down assay
Details: 20 µM Tanshinone I, ImageJ, average of three repeats

- Mean density band (E337K), relative quantification of AlaRS mutant pulled down: 0.90
SMILES: Cc1coc2c1C(=O)C(=O)c1c-2ccc2c(C)cccc12 [Tanshinone I]
